This series can be described thus: Solubility. In kind it is physicochemical.
[1] abbreviates: Benzene, hexane and ether, crystals of Example 1.
The mark [2] stands for this setting: Benzene, hexane and ether, crystals of Example 2 (pure).
Where [3] appears, read: Chloroform, ethyl acetate, methanol and acetone, crystals of Example 1.
Where [4] appears, read: Chloroform, ethyl acetate, methanol and acetone, crystals of Example 2 (pure).
The mark [5] stands for this setting: water, crystals of Example 2 (pure).

`CCC/C=C/C/C=C/C=C/C=NN=NO` [FR-900190]: the Solubility entry is recorded as “Sparingly soluble” under setting [1]; “Sparingly soluble” under setting [2]; “Soluble” under setting [3]; “Soluble” under setting [4]; “Insoluble” (water, crystals of Example 1); “Insoluble” under setting [5].
As to `CCCC/C=C/C=C/C=C/C=NN=NO` [FR-900184], the Solubility result under setting [1] was “Sparingly soluble”; the Solubility entry under setting [2] is given as “Sparingly soluble”; the Solubility result under setting [3] is “Soluble”; the Solubility result under setting [4] is reported as “Soluble”; the Solubility result (water, crystals of Example 1) is “Insoluble”; the Solubility result under setting [5] was “Insoluble”.

Source of the values: US4297096A, “Alkyl, alkenyl, and aryl substituted triazene compounds, their salts and production thereof” (Fujisawa Pharmaceutical Co. Ltd., priority 1980, dated 1981).
